The supplement of paper PMC4862054

Columns and labels:
Conditions in all cases: incubation time: 72 h
HCC1937 [1] = experiment: normalised response (% of control), CellTiter-Glo; higher = more viable cells (100 = DMSO, 0 = benzethonium chloride kill control)
How it was run: (§1)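 For each plate, 0.1 % DMSO was set to 100 and a positive kill control to 0. Breast cancer cell lines (20 µl suspension) were seeded into 384-well plates already holding compound at 5 concentrations in 10-fold steps over a 10,000-fold range chosen per compound, and incubated for 72 h. CellTox Green fluorescence at 485/520 nm was read before CellTiter-Glo luminescence, which followed 10 min at room temperature. Each value is the normalised signal at one concentration.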

CAL-85-1 [2] = experiment: as above
How it was run: as §1

SK-BR-3 [3] = experiment: as above
How it was run: as §1

BT-549 [4] = experiment: as above
How it was run: as §1

CAL-51 [5] = experiment: as above
How it was run: as §1

MDA-MB-468 [6] = experiment: as above
How it was run: as §1

DU-4475 [7] = experiment: as above
How it was run: as §1

MDA-MB-436 [8] = experiment: as above
How it was run: as §1

MCF-10A = experiment: as above
How it was run: as §1

HCC1143 [9] = experiment: as above
How it was run: as §1

BT-474 [10] = experiment: as above
How it was run: as §1

CAL-148 [11] = experiment: as above
How it was run: as §1

MDA-MB-453 [12] = experiment: as above
How it was run: as §1

HCC1599 [13] = experiment: as above
How it was run: as §1

MDA-MB-231 [14] = experiment: as above
How it was run: as §1

HDQ-P1 [15] = experiment: as above
How it was run: as §1

CAL-120 [16] = experiment: as above
How it was run: as §1

Hs578T [17] = experiment: as above
How it was run: as §1

MFM-223 [18] = experiment: as above
How it was run: as §1

HCC1937 [19] = experiment: normalised viability (% of control), CellTiter-Blue; higher = more viable cells (100 = DMSO, 0 = benzethonium chloride kill control)
Experimental: (§2)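 DSRT, CellTiter-Blue viability, 72 h incubation. Signal is normalised to DMSO and benzethonium chloride controls. Value is the normalised response at dose 1.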

CAL-85-1 [20] = experiment: as above
Experimental: as §2

SK-BR-3 [21] = experiment: as above
Experimental: as §2

BT-549 [22] = experiment: as above
Experimental: as §2

CAL-51 [23] = experiment: as above
Experimental: as §2

MDA-MB-468 [24] = experiment: as above
Experimental: as §2

DU-4475 [25] = experiment: as above
Experimental: as §2

MDA-MB-436 [26] = experiment: as above
Experimental: as §2

HCC1143 [27] = experiment: as above
Experimental: as §2

BT-474 [28] = experiment: as above
Experimental: as §2

CAL-148 [29] = experiment: as above
Experimental: as §2

MDA-MB-453 [30] = experiment: as above
Experimental: as §2

HCC1599 [31] = experiment: as above
Experimental: as §2

MDA-MB-231 [32] = experiment: as above
Experimental: as §2

HDQ-P1 [33] = experiment: as above
Experimental: as §2

CAL-120 [34] = experiment: as above
Experimental: as §2

Hs578T [35] = experiment: as above
Experimental: as §2

MFM-223 [36] = experiment: as above
Experimental: as §2

| Structure (SMILES) | normalised response (HCC1937 [1]) | normalised response (CAL-85-1 [2]) | normalised response (SK-BR-3 [3]) | normalised response (BT-549 [4]) | normalised response (CAL-51 [5]) | normalised response (MDA-MB-468 [6]) | normalised response (DU-4475 [7]) | normalised response (MDA-MB-436 [8]) | normalised response (MCF-10A) | normalised response (HCC1143 [9]) | normalised response (BT-474 [10]) | normalised response (CAL-148 [11]) | normalised response (MDA-MB-453 [12]) | normalised response (HCC1599 [13]) | normalised response (MDA-MB-231 [14]) | normalised response (HDQ-P1 [15]) | normalised response (CAL-120 [16]) | normalised response (Hs578T [17]) | normalised response (MFM-223 [18]) | normalised viability (HCC1937 [19]) | normalised viability (CAL-85-1 [20]) | normalised viability (SK-BR-3 [21]) | normalised viability (BT-549 [22]) | normalised viability (CAL-51 [23]) | normalised viability (MDA-MB-468 [24]) | normalised viability (DU-4475 [25]) | normalised viability (MDA-MB-436 [26]) | normalised viability (HCC1143 [27]) | normalised viability (BT-474 [28]) | normalised viability (CAL-148 [29]) | normalised viability (MDA-MB-453 [30]) | normalised viability (HCC1599 [31]) | normalised viability (MDA-MB-231 [32]) | normalised viability (HDQ-P1 [33]) | normalised viability (CAL-120 [34]) | normalised viability (Hs578T [35]) | normalised viability (MFM-223 [36]) |
| --- | --- | --- | --- | --- | --- | --- | --- | --- | --- | --- | --- | --- | --- | --- | --- | --- | --- | --- | --- | --- | --- | --- | --- | --- | --- | --- | --- | --- | --- | --- | --- | --- | --- | --- | --- | --- | --- |
| C=CCNC1=C2C[C@@H](C)C[C@H](OC)[C@H](O)[C@@H](C)/C=C(\C)[C@H](OC(N)=O)[C@@H](OC)/C=C\C=C(/C)C(=O)NC(=CC1=O)C2=O [Tanespimycin] (1 nM) | 94.7% | 107% | 96.8% | 105% | 104% | 107% | 99% | 86.8% | 99.1% | 95.8% | 91.9% | 92.6% | 104% | 102% | 98.9% | 99.4% | 92.5% | 104% | 94% | 86.4% | 92.6% | 93% | 113% | 115% | 103% | 118% | 110% | 87.4% | 97.3% | 115% | 108% | 94.7% | 98.2% | 105% | 77.1% | 101% | 90.8% |
| S=c1[nH]cnc2nc[nH]c12 [Mercaptopurine] (1 nM) | 99.8% | 96.9% | 95.7% | 108% | 122% | 90.8% | 92.4% | 97.2% | 95.3% | 97.8% | 90.2% | 91.3% | 109% | 98.9% | 98.2% | 108% | 99.5% | 103% | 97.3% | 93.6% | 84% | 104% | 107% | 104% | 98.7% | 101% | 80.8% | 97.6% | 105% | 116% | 105% | 97.3% | 103% | 106% | 96.6% | 130% | 95.9% |
| Nc1ccn([C@@H]2O[C@H](CO)[C@@H](O)[C@@H]2O)c(=O)n1 [Cytarabine] (1 nM) | 99.3% | 98.8% | 101% | 93.5% | 75.7% | 97.8% | 100% | 102% | 112% | 97.6% | 103% | 99.7% | 99.8% | 108% | 93.3% | 96.6% | 98.7% | 102% | 103% | 95.3% | 101% | 101% | 86.8% | 89.8% | 98.1% | 111% | 101% | 108% | 75.4% | 106% | 96.3% | 111% | 92.2% | 96.5% | 96.1% | 93.9% | 102% |
| CN(C)C/C=C/C(=O)Nc1cc2c(Nc3ccc(F)c(Cl)c3)ncnc2cc1O[C@H]1CCOC1 [Afatinib] (1 nM) | 97.2% | 108% | 98.9% | 96.9% | 116% | 109% | 109% | 105% | 92.7% | 106% | 97.5% | 90.3% | 112% | 104% | 97.7% | 98.4% | 94.4% | 96.5% | 97.8% | 85.4% | 82% | 89.2% | 111% | 109% | 107% | 96.4% | 88.4% | 83.8% | 85.9% | 106% | 101% | 84.5% | 92.4% | 74.3% | 69.7% | 102% | 93.2% |
